From the kinase profiling compilation of Christmann-Franck et al. (2016)

Assays:
Assay in all cases: KINOMEscan competition binding
Details in all cases: compound 10.0 µM
[1] = molecular target: HUNK (human) (UniProt P57058)
[2] = molecular target: TBK1 (human) (UniProt Q9UHD2)
[3] = molecular target: RIPK2 (human) (UniProt O43353)
[4] = molecular target: SGK110 (human) (UniProt P0C264)
[5] = molecular target: PLK3 (human) (UniProt Q9H4B4)
[6] = molecular target: STK32A (human) (UniProt Q8WU08)
[7] = molecular target: PIP4K2B (human) (UniProt P78356)
[8] = system: EGFR (human), P00533 [T790M/L858R]
[9] = molecular target: ALK (human) (UniProt Q9UM73)
Chain of ALK (human) (Q9UM73 whole entry, looked up): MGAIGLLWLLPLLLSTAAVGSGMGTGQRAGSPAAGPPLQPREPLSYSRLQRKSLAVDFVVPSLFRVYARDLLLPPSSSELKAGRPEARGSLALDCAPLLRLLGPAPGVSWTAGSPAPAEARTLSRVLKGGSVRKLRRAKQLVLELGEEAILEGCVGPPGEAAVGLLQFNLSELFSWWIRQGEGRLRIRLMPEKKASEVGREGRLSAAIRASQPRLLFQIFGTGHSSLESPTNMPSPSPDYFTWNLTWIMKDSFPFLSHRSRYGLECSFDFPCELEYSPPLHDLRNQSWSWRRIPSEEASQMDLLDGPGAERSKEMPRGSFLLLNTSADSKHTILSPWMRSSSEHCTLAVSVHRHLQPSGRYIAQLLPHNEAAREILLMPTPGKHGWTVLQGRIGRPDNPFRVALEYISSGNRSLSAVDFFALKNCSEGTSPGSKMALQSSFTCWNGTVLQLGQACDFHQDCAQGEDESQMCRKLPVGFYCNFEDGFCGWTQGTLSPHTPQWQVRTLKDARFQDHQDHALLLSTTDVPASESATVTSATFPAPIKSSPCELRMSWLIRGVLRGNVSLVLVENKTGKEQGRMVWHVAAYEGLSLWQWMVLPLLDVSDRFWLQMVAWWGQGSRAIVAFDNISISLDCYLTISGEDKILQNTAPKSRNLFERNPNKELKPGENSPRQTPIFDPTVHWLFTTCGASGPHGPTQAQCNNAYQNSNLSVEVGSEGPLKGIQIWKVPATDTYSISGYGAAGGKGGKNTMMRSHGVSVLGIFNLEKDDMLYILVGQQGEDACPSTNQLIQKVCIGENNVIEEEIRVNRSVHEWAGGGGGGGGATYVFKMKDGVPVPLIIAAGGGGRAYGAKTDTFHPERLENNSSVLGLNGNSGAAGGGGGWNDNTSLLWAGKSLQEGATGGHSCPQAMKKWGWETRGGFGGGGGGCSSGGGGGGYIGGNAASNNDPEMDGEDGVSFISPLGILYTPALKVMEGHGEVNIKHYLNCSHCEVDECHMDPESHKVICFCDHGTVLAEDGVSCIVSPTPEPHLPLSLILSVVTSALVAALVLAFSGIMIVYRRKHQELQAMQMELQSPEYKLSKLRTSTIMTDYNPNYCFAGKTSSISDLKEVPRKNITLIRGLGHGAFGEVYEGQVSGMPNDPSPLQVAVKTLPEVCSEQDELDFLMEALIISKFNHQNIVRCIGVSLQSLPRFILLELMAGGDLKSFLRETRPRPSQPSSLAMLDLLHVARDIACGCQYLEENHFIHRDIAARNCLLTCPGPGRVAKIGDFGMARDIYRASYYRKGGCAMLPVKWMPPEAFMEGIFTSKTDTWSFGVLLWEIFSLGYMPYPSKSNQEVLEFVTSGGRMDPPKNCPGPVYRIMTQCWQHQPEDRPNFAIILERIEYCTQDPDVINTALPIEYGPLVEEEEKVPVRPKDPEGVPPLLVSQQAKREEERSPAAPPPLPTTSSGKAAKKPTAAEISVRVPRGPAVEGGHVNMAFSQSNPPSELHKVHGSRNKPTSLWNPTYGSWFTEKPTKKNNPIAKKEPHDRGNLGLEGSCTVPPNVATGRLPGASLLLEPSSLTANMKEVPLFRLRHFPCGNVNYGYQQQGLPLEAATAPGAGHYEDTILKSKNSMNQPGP

[10] = molecular target: CLK1 (human) (UniProt P49759)
[11] = molecular target: MAPK12 (human) (UniProt P53778)
[12] = molecular target: MAP3K12 (human) (UniProt Q12852)
[13] = molecular target: PAK4 (human) (UniProt O96013)
[14] = molecular target: PIP5K1A (human) (UniProt Q99755)
[15] = molecular target: NEK9 (human) (UniProt Q8TD19)
[16] = molecular target: BMPR2 (human) (UniProt Q13873)
[17] = molecular target: ICK (human) (UniProt Q9UPZ9)
[18] = molecular target: CDK3 (human) (UniProt Q00526)
Chain of CDK3 (human) (Q00526 whole entry, looked up): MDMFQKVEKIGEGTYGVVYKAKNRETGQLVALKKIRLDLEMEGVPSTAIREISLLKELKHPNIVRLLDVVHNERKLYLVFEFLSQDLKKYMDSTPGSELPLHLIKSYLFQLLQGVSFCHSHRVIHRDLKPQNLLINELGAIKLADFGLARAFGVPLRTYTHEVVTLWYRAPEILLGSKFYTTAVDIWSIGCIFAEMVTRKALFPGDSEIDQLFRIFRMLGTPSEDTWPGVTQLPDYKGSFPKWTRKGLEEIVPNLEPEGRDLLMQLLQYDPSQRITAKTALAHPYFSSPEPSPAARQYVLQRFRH

[19] = molecular target: EPHB6 (human) (UniProt O15197)
[20] = molecular target: DCLK3 (human) (UniProt Q9C098)
[21] = molecular target: FGFR3 (human) (UniProt P22607)
[22] = molecular target: HIPK3 (human) (UniProt Q9H422)
[23] = molecular target: PRKD2 (human) (UniProt Q9BZL6)
[24] = molecular target: EPHA8 (human) (UniProt P29322)
[25] = molecular target: DAPK2 (human) (UniProt Q9UIK4)
Chain of DAPK2 (human) (Q9UIK4 whole entry, looked up): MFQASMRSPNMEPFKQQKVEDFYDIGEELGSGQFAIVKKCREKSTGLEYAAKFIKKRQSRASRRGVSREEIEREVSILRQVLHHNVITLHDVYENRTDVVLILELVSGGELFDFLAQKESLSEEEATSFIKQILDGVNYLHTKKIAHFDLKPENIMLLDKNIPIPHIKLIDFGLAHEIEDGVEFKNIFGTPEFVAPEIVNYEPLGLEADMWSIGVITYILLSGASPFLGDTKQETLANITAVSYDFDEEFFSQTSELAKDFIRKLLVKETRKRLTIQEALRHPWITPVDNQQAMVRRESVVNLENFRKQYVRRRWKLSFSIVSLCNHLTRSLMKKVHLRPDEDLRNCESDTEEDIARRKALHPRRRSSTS

[26] = molecular target: CDKL1 (human) (UniProt Q00532)
[27] = molecular target: TYK2 JH1 catalytic (human) (UniProt P29597)
[28] = molecular target: MAPK10 (human) (UniProt P53779)
[29] = molecular target: CSNK1A1L (human) (UniProt Q8N752)
[30] = molecular target: STK16 (human) (UniProt O75716)
[31] = molecular target: ACVR2B (human) (UniProt Q13705)
Chain of ACVR2B (human) (Q13705 whole entry, looked up): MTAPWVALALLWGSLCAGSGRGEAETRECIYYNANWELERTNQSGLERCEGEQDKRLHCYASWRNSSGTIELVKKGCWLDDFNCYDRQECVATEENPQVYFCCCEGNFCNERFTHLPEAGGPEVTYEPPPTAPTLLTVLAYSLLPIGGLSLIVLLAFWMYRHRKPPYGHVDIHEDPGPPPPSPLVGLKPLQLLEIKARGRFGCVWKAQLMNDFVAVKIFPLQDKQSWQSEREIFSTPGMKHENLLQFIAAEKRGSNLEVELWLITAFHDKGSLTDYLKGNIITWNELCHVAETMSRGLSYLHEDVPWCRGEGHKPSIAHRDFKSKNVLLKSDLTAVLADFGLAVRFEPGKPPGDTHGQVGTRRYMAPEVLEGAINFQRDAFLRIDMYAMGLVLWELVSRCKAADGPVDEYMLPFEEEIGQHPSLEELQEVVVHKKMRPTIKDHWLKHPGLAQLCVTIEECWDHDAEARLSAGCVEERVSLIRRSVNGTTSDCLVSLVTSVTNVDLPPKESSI

[32] = molecular target: PRKD1 (human) (UniProt Q15139)
[33] = molecular target: MST4 (human) (UniProt Q9P289)
[34] = molecular target: LRRK2 (human) (UniProt Q5S007)
[35] = molecular target: MAP4K5 (human) (UniProt Q9Y4K4)
[36] = molecular target: PRKAA1 (human) (UniProt Q13131)
Chain of PRKAA1 (human) (Q13131 whole entry, looked up): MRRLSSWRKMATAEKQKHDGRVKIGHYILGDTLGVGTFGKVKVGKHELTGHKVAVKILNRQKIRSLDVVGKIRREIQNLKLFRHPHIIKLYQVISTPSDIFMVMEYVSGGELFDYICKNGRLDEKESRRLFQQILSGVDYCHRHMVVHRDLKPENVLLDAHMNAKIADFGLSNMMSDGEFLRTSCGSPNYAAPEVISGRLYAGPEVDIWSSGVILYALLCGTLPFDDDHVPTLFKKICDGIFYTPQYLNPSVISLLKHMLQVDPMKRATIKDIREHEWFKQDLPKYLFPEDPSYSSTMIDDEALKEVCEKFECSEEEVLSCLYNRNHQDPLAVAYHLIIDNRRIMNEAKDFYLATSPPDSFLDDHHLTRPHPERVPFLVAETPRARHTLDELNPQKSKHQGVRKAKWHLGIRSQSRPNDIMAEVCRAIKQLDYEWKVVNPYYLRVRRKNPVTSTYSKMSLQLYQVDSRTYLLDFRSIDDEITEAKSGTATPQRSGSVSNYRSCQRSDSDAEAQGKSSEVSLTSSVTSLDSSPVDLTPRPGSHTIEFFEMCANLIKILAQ

[37] = molecular target: RPS6KA3 KD1 (human) (UniProt P51812)
[38] = molecular target: TESK1 (human) (UniProt Q15569)
[39] = molecular target: MAP3K13 (human) (UniProt O43283)
[40] = molecular target: EPHB2 (human) (UniProt P29323)
Chain of EPHB2 (human) (P29323 whole entry, looked up): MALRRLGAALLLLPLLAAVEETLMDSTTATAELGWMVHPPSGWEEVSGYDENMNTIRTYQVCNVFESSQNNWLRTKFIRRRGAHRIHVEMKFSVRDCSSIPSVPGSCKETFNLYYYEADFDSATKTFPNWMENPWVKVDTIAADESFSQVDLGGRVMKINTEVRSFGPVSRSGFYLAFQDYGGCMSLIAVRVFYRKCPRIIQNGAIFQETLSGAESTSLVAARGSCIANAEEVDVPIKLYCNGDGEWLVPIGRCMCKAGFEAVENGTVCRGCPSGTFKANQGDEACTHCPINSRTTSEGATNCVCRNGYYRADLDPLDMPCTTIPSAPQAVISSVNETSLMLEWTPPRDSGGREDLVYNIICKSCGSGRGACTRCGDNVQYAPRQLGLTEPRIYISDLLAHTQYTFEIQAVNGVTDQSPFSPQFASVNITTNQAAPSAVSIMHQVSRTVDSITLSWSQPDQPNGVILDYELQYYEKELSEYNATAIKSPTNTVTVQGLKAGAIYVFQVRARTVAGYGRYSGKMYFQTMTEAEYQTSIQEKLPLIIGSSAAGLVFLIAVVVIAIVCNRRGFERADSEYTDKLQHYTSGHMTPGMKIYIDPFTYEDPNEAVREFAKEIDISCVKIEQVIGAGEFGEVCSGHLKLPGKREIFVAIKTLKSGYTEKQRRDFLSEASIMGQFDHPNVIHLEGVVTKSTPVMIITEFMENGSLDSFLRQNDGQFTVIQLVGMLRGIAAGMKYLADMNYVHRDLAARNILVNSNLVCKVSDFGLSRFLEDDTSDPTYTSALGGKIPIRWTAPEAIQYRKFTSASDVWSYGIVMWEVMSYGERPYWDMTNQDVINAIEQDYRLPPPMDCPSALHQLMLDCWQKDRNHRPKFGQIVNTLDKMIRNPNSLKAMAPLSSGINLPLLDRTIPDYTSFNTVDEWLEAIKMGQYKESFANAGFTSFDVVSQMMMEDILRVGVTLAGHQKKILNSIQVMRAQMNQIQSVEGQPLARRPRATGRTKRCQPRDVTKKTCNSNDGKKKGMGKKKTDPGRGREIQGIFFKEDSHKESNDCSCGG

Chain of PLK3 (human) (Q9H4B4 whole entry, looked up): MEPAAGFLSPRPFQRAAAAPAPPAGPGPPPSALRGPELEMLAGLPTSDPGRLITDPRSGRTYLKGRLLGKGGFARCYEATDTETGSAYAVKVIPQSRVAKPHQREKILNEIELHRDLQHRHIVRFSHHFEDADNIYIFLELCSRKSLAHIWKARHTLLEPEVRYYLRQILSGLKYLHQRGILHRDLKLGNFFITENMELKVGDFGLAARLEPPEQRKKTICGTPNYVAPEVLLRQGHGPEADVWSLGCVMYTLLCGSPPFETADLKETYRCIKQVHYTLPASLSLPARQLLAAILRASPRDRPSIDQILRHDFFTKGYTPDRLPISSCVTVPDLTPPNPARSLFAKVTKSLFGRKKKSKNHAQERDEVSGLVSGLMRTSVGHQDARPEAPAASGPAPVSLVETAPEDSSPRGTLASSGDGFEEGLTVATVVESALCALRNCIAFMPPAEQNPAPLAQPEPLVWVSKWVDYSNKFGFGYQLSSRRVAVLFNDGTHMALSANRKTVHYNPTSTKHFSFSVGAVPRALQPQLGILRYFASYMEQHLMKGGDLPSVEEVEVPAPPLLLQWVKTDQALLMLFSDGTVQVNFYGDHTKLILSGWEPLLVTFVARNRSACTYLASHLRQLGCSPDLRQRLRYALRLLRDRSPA

O=C1NC(=O)/C(=C/c2ccc3nccc(-c4ccncc4)c3c2)S1
kinase still bound, per cent of control [1]: 59% | kinase still bound, per cent of control [2]: 29% | kinase still bound, per cent of control [3]: 30% | kinase still bound, per cent of control [4]: 100% | kinase still bound, per cent of control [5]: 49% | kinase still bound, per cent of control [6]: 83% | kinase still bound, per cent of control [7]: 4% | kinase still bound, per cent of control [8]: 82% | kinase still bound, per cent of control [9]: 25% | kinase still bound, per cent of control [10]: 0% | kinase still bound, per cent of control [11]: 56% | kinase still bound, per cent of control [12]: 96% | kinase still bound, per cent of control [13]: 75% | kinase still bound, per cent of control [14]: 48% | kinase still bound, per cent of control [15]: 95% | kinase still bound, per cent of control [16]: 100% | kinase still bound, per cent of control [17]: 46% | kinase still bound, per cent of control [18]: 87% | kinase still bound, per cent of control [19]: 39% | kinase still bound, per cent of control [20]: 11% | kinase still bound, per cent of control [21]: 100% | kinase still bound, per cent of control [22]: 1.2% | kinase still bound, per cent of control [23]: 90% | kinase still bound, per cent of control [24]: 90% | kinase still bound, per cent of control [25]: 1.7% | kinase still bound, per cent of control [26]: 61% | kinase still bound, per cent of control [27]: 38% | kinase still bound, per cent of control [28]: 26% | kinase still bound, per cent of control [29]: 55% | kinase still bound, per cent of control [30]: 4.9% | kinase still bound, per cent of control [31]: 20% | kinase still bound, per cent of control [32]: 89% | kinase still bound, per cent of control [33]: 90% | kinase still bound, per cent of control [34]: 62% | kinase still bound, per cent of control [35]: 41% | kinase still bound, per cent of control [36]: 88% | kinase still bound, per cent of control [37]: 41% | kinase still bound, per cent of control [38]: 84% | kinase still bound, per cent of control [39]: 82% | kinase still bound, per cent of control [40]: 86%
